Assay results from article PMC11594133, “Enzyme (α-Glucosidase, α-Amylase, PTP1B & VEGFR-2) Inhibition and Cytotoxicity of Fluorinated Benzenesulfonic Ester Derivatives of the 5-Substituted 2-Hydroxy-3-nitroacetophenones” (International Journal of Molecular Sciences, 2024).

Columns and labels:
[1] = biological target: α-glucosidase from Saccharomyces cerevisiae (Saccharomyces cerevisiae, UniProt P53341); assay: biochemical
Protocol: A mixture of α-glucosidase (17 µL) from Saccharomyces cerevisiae (0.48 u/mL α-glucosidase), phosphate buffer (100 mM, pH 6.8; 50 µL) and test sample in DMSO was incubated at 37 °C for 10 min. After 10 min., a solution of 2 mM p-nitrophenyl-α-D-glucopyranoside (PNP-G, 17 µL) was added to each well to initiate the reaction. The plate was incubated for 30 min at 37 °C. Five absorbance readings were recorded for each triplicate run at a wavelength of 405 nm using Varioskan flash microplate spectrophotometer (Thermo Scientific, Waltham, MA, USA). The average values obtained from the readings were used to determine the IC50 and standard deviation values. The values were calculated by nonlinear regression analysis and expressed as the mean SD of three distinct experiments using Graph Pad Prism software.

Human VEGFR-2 (KDR) = Human VEGFR-2 (KDR) (Homo sapiens, UniProt P35968); assay: Human VEGFR-2 (KDR) kinase assay kit (Kinase-Glo MAX)
Chain of Human VEGFR-2 (KDR) (P35968 20-1356): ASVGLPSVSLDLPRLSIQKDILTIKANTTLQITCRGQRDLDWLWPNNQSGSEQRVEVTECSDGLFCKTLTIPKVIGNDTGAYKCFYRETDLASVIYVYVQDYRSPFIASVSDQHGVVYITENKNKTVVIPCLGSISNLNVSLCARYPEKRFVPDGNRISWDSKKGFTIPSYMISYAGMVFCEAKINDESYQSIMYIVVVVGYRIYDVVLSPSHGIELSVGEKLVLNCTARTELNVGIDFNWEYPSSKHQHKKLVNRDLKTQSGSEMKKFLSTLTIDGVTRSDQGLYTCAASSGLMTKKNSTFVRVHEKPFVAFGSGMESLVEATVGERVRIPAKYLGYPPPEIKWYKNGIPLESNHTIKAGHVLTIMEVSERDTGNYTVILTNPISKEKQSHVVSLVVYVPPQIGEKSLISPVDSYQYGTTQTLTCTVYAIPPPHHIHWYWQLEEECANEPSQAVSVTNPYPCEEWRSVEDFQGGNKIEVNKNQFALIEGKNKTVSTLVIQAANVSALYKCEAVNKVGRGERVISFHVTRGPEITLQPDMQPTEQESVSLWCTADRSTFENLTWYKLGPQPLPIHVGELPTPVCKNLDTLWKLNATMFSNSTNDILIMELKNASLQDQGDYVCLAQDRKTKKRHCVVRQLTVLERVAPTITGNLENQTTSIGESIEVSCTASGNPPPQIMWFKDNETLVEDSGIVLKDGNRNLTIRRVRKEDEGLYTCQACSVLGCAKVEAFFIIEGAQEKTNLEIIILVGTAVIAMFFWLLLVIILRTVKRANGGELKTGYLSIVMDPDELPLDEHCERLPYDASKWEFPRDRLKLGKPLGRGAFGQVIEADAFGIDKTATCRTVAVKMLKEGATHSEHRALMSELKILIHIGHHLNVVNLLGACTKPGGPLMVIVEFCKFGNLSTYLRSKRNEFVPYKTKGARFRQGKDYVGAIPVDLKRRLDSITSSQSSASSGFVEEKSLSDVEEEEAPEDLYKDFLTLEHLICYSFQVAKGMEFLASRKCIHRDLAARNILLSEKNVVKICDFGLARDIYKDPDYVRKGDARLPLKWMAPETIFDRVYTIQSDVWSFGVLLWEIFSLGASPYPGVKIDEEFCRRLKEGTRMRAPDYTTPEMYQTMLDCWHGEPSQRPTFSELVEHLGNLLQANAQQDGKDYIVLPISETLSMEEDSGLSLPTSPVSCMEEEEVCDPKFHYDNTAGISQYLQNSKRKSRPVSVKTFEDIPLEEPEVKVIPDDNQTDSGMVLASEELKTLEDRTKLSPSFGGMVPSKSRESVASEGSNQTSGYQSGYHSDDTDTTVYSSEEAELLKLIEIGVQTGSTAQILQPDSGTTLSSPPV
Protocol: The VEGFR-2 enzyme (1 ng/μL) was added to the wells and the mixtures were incubated at 30 °C. After 45 min of incubation, kinase detection reagent (50 μL, Kinase-Glo MAX, Promega) was added to each well. The mixtures were incubated for 15 min at room temperature in the dark. A luminescence reading was detected and quantified by a microplate reader (Varioskan Flash, ThermoFisher Scientific, Vantaa, Finland). The IC50 values were determined by the nonlinear regression analysis using GraphPad Prism software version 8.0 (GraphPad Software, Inc., San Diego, CA, USA).

PTP1B = biological target: T1, PTP1B (Homo sapiens, UniProt P18031); assay: In vitro PTP1B inhibitory assay (Fluorogenic PTP1B (Catalytic Domain) Assay)
T1 sequence (P18031 3-277 limits assumed): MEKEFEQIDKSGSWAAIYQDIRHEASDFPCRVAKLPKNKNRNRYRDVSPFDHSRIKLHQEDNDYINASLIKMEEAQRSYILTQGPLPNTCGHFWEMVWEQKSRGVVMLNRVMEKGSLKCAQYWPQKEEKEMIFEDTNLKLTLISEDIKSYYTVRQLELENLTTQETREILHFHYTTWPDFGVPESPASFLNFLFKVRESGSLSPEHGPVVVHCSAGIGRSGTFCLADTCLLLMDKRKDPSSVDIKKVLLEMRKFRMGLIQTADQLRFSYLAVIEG
Protocol: The PTP1B assay was performed in duplicate using a 96-well plate. The procedure was carried out according to the manufacturer’s protocol as outlined in the Fluorogenic PTP1B (Catalytic Domain) Assay (Catalogue No. #79764; Abcam, Cambridge, UK). The stock solutions (200 μM) of the test compounds and the reference standard, sodium orthovanadate, were prepared in DMSO, and then diluted with PTP1B assay buffer to obtain a concentration of 100 μM. From this dilution appropriate volumes of each compound and the standard were placed in the 96-well plates to obtain the final concentrations of 1, 5, 10, 25 and 50 µM for the assay. The PTP1B enzyme (2 pg/μL) was added to the wells and the mixtures were incubated at room temperature. After 30 min of incubation, the fluorescence intensity was measured at 360 nm excitation and 460 nm emission wavelengths using an Elisa plate reader. The blank value was subtracted from all other values. The IC50 and SD values were calculated using GraphPad prism version 8.0 and Excel (Version 2409), respectively.

Vero cell line = assay: CellTiter-Blue cell viability assay, Vero; conditions: Chlorocebus sabaeus, 24 h, read-out: IC50 (µM ± SD) Vero
Protocol: (§1) The cytotoxic activity of these compounds was evaluated in vitro (triplicate run) on the MCF-7, A549 and Vero cell lines using the CellTiter-Blue Cell viability assay (Promega, Madison, WI, USA) assay referring to the reported instructions as described in our previous study [70]. The cells were maintained in culture flasks in the presence of Dulbecco’s Modified Eagle’s Medium (DMEM; Gibco, Carlsbad, CA, USA) supplemented with 10% fetal bovine serum (FBS) and 1% penicillin/streptomycin and then incubated at 37 °C in 5% CO2. The cells were detached using 2% trypsin upon reaching 85% confluency and counted with a hand-held automated cell counter (Scapter 3.0™, Merck, Burlington, MA, USA). The cells were then seeded at 1 × 10^5 cells/well and the well-plates were incubated overnight to allow cell attachment. […] The mixtures were incubated for another 24 h and then 20 µL of the CellTiter-Blue solution was added to each well. Fluorescence was measured using an Elisa microplate reader (ThermoFisher Scientific, Vario SkanFlash, Vantaa, Finland) at 560 nm excitation/590 nm emission.

MCF-7 cell line = assay: CellTiter-Blue cell viability assay, MCF-7; conditions: Homo sapiens, MCF7, 24 h, read-out: IC50 (µM ± SD) MCF-7
Protocol: as §1

A549 cell line = assay: CellTiter-Blue cell viability assay, A549; conditions: Homo sapiens, A549, 24 h, read-out: IC50 (µM ± SD) A549
Protocol: as §1

α-amylase = biological target: T2, α-amylase (Homo sapiens, UniProt P04746); assay: In vitro α-amylase inhibitory assay (α-Amylase Inhibitor Screening Kit)
T2 sequence (P04746 16-511): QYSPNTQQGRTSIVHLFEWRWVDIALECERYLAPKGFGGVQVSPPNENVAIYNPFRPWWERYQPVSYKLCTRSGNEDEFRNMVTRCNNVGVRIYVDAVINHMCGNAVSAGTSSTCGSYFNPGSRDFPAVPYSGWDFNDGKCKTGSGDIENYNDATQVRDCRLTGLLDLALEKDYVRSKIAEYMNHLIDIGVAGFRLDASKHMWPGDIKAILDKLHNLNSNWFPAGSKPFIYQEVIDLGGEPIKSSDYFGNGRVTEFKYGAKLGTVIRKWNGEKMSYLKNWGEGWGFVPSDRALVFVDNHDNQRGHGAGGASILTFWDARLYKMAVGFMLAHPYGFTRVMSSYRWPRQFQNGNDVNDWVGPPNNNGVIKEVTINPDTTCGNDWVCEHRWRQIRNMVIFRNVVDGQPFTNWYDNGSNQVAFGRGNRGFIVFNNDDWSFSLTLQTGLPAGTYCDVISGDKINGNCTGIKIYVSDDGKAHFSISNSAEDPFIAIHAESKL
Protocol: The α-amylase assay was performed in triplicate using a 96-well plate using the α-Amylase Inhibitor Screening Kit (Catalog No. K482; Abcam, Cambridge, UK). […] A solution of α-amylase enzyme (50 μL) prepared by adding 490 μL of assay buffer to 10 μL of α-amylase enzyme was added to each of the wells containing the reaction mixture to initiate the reaction. The plate was incubated for 10 min. at room temperature in the dark. Five different absorbance readings were recorded for each triplicate run at a wavelength of 405 nm using Varioskan flash microplate spectrophotometer (Thermo Scientific, Waltham, MA, USA). The IC50 and SD values were calculated using the Graph Pad Prism software.

α-glucosidase = system: α-glucosidase; design: method as in PMID 32876951; conditions: cited from earlier work

Chain of α-glucosidase from Saccharomyces cerevisiae (P53341 whole entry): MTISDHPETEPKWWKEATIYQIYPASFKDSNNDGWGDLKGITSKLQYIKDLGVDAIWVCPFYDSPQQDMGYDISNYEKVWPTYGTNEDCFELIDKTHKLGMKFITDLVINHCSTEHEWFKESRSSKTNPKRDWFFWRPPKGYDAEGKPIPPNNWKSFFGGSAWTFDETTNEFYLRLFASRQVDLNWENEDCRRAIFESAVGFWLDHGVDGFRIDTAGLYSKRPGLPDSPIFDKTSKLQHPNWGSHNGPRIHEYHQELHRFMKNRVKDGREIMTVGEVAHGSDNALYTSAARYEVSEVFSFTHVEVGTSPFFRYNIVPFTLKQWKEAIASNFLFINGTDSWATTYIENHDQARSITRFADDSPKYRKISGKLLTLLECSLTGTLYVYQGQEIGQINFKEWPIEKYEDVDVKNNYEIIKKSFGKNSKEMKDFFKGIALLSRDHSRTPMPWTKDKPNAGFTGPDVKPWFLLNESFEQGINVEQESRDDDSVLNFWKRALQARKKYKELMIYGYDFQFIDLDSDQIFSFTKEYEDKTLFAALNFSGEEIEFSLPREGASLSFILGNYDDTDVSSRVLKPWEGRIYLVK

SMILES	IC50 [1] [µM]	IC50 (Vero cell line) [µM]	IC50 (MCF-7 cell line) [µM]	IC50 (A549 cell line) [µM]	also measured
CC(=O)c1cc(Cl)cc([N+](=O)[O-])c1O [Compound 1b]	27.2 ± 0.195	–	–	–	–
CC(=O)c1cc(C)cc([N+](=O)[O-])c1OS(=O)(=O)c1cccc(F)c1 [Compound 2t, 2-Acetyl-4-methyl-6-nitrophenyl 3-fluorobenzenesulfonate]	13.1 ± 0.045	–	–	–	–
CC(=O)c1cc(Cl)cc([N+](=O)[O-])c1OS(=O)(=O)c1ccc(F)cc1 [Compound 2i, 2-Acetyl-4-chloro-6-nitrophenyl 4-fluorobenzenesulfonate]	10.6 ± 0.039	–	–	–	–
CC(=O)c1cc(C)cc([N+](=O)[O-])c1OS(=O)(=O)c1ccc(C(F)(F)F)cc1 [Compound 2v, 2-Acetyl-4-methyl-6-nitrophenyl 4-(trifluoromethyl)benzenesulfonate]	3 ± 0.014	48.02 ± 0.18	8.58 ± 0.07	5.5 ± 0.01	IC50 (Human VEGFR-2 (KDR)): 16.3 ± 0.29 µM; IC50 (PTP1B): 7.6 ± 0.07 µM; IC50 (α-amylase): 6 ± 0.02 µM
COc1ccc(S(=O)(=O)Oc2c(C(C)=O)cc(C)cc2[N+](=O)[O-])cc1 [Compound 2x, 2-Acetyl-4-methyl-6-nitrophenyl 4-methoxybenzenesulfonate]	3.6 ± 0.029	56.77 ± 0.18	11.01 ± 0.07	1.01 ± 0.01	IC50 (Human VEGFR-2 (KDR)): 24.2 ± 0.22 µM; IC50 (PTP1B): 21.5 ± 0.066 µM; IC50 (α-amylase): 11.9 ± 0.022 µM
CC(=O)c1cc(C)cc([N+](=O)[O-])c1OS(=O)(=O)c1ccc(F)cc1 [Compound 2u, 2-Acetyl-4-methyl-6-nitrophenyl 4-fluorobenzenesulfonate]	11.2 ± 0.045	–	–	–	–
CC(=O)c1cc(C)cc([N+](=O)[O-])c1OS(=O)(=O)c1ccc(OC(F)(F)F)cc1 [Compound 2w, 2-Acetyl-4-methyl-6-nitrophenyl 4-(trifluoromethoxy)benzenesulfonate]	6 ± 0.034	–	–	–	IC50 (α-amylase): 16.7 ± 0.035 µM
CC(=O)c1cc(C)cc([N+](=O)[O-])c1O [Compound 1d]	8.2 ± 0.015	–	–	–	inhibition of α-glucosidase activity (reported) (α-glucosidase): low nanomolar concentrations
CC(=O)c1cc(Cl)cc([N+](=O)[O-])c1OS(=O)(=O)c1ccc(C(F)(F)F)cc1 [Compound 2j, 2-Acetyl-4-chloro-6-nitrophenyl 4-(trifluoromethyl)benzenesulfonate]	5.4 ± 0.03	38.86 ± 0.16	2.58 ± 0.02	2.52 ± 0.02	IC50 (Human VEGFR-2 (KDR)): 20.8 ± 0.35 µM; IC50 (PTP1B): 19.6 ± 0.042 µM; IC50 (α-amylase): 7.3 ± 0.008 µM
CC(=O)c1cc(Cl)cc([N+](=O)[O-])c1OS(=O)(=O)c1ccc(OC(F)(F)F)cc1 [Compound 2k, 2-Acetyl-4-chloro-6-nitrophenyl 4-(trifluoromethoxy)benzenesulfonate]	3.9 ± 0.031	33.39 ± 0.13	34.53 ± 0.12	1.89 ± 0.05	IC50 (Human VEGFR-2 (KDR)): 26.4 ± 0.2 µM; IC50 (PTP1B): 20.1 ± 0.065 µM; IC50 (α-amylase): 9.8 ± 0.021 µM
CC(=O)c1cc(C)cc([N+](=O)[O-])c1OS(=O)(=O)c1ccccc1F [Compound 2s, 2-Acetyl-4-methyl-6-nitrophenyl 2-fluorobenzenesulfonate]	18.1 ± 0.048	–	–	–	–
CC(=O)c1cc(F)cc([N+](=O)[O-])c1OS(=O)(=O)c1ccc(OC(F)(F)F)cc1 [Compound 2e, 2-Acetyl-4-fluoro-6-nitrophenyl 4-(trifluoromethoxy)benzenesulfonate]	3.1 ± 0.043	20.78 ± 0.14	8.18 ± 0.03	7.42 ± 0.09	IC50 (Human VEGFR-2 (KDR)): 28.5 ± 0.23 µM; IC50 (PTP1B): 23.1 ± 0.006 µM; IC50 (α-amylase): 15.2 ± 0.019 µM
CC(=O)c1cc(Br)cc([N+](=O)[O-])c1OS(=O)(=O)c1cccc(F)c1 [Compound 2n, 2-Acetyl-4-bromo-6-nitrophenyl 3-fluorobenzenesulfonate]	18.2 ± 0.041	–	–	–	–
CC(=O)c1cc(Cl)cc([N+](=O)[O-])c1OS(=O)(=O)c1cccc(F)c1 [Compound 2h, 2-Acetyl-4-chloro-6-nitrophenyl 3-fluorobenzenesulfonate]	12.4 ± 0.041	–	–	–	–
CC(=O)c1cc(Br)cc([N+](=O)[O-])c1O [Compound 1c]	11.9 ± 0.01	–	–	–	–
CC(=O)c1cc(Br)cc([N+](=O)[O-])c1OS(=O)(=O)c1ccccc1F [Compound 2m, 2-Acetyl-4-bromo-6-nitrophenyl 2-fluorobenzenesulfonate]	7.9 ± 0.044	–	–	–	–
CC(=O)c1cc(F)cc([N+](=O)[O-])c1OS(=O)(=O)c1ccccc1F [Compound 2a, 2-Acetyl-4-fluoro-6-nitrophenyl 2-fluorobenzenesulfonate]	5.6 ± 0.038	39.21 ± 0.13	4.96 ± 0.05	7.75 ± 0.11	IC50 (Human VEGFR-2 (KDR)): 28.7 ± 0.27 µM
CC(=O)c1cc(F)cc([N+](=O)[O-])c1O [Compound 1a]	16.9 ± 0.064	–	–	–	–
COc1cccc2c1C(=O)c1c(O)c3c(c(O)c1C2=O)C[C@@](O)(C(=O)CO)C[C@@H]3O[C@H]1C[C@H](N)[C@H](O)[C@H](C)O1 [Doxorubicin, reference compound]	–	0.94 ± 0.04	0.59 ± 0.03	0.71 ± 0.09	–
COc1ccc(S(=O)(=O)Oc2c(C(C)=O)cc(Br)cc2[N+](=O)[O-])cc1 [Compound 2r, 2-Acetyl-4-bromo-6-nitrophenyl 4-methoxybenzenesulfonate]	13.2 ± 0.043	–	–	–	–
CC(=O)c1cc(F)cc([N+](=O)[O-])c1OS(=O)(=O)c1ccc(F)cc1 [Compound 2c, 2-Acetyl-4-fluoro-6-nitrophenyl 4-fluorobenzenesulfonate]	27.4 ± 0.044	–	–	–	–
CC(=O)c1cc(F)cc([N+](=O)[O-])c1OS(=O)(=O)c1ccc(C(F)(F)F)cc1 [Compound 2d, 2-Acetyl-4-fluoro-6-nitrophenyl 4-(trifluoromethyl)benzenesulfonate]	6.4 ± 0.012	–	–	–	–
CC(=O)c1cc(Br)cc([N+](=O)[O-])c1OS(=O)(=O)c1ccc(F)cc1 [Compound 2o, 2-Acetyl-4-bromo-6-nitrophenyl 4-fluorobenzenesulfonate]	20.5 ± 0.058	–	–	–	–
COC(=O)c1ccc2c(c1)NC(=O)/C2=C(\Nc1ccc(N(C)C(=O)CN2CCN(C)CC2)cc1)c1ccccc1 [Nintedanib, reference compound]	–	0.24 ± 0.02	0.4 ± 0.03	0.78 ± 0.04	–
CC(=O)c1cc(Cl)cc([N+](=O)[O-])c1OS(=O)(=O)c1ccccc1F [Compound 2g, 2-Acetyl-4-chloro-6-nitrophenyl 2-fluorobenzenesulfonate]	4.2 ± 0.054	33.93 ± 0.15	9.92 ± 0.09	6.15 ± 0.06	IC50 (Human VEGFR-2 (KDR)): 34.4 ± 0.26 µM; IC50 (PTP1B): 16.9 ± 0.016 µM; IC50 (α-amylase): 7 ± 0.04 µM
CC(=O)c1cc(F)cc([N+](=O)[O-])c1OS(=O)(=O)c1cccc(F)c1 [Compound 2b, 2-Acetyl-4-fluoro-6-nitrophenyl 3-fluorobenzenesulfonate]	8.6 ± 0.025	–	–	–	–
COc1ccc(S(=O)(=O)Oc2c(C(C)=O)cc(Cl)cc2[N+](=O)[O-])cc1 [Compound 2l, 2-Acetyl-4-chloro-6-nitrophenyl 4-methoxybenzenesulfonate]	8.5 ± 0.043	–	–	–	–
CC(=O)c1cc(Br)cc([N+](=O)[O-])c1OS(=O)(=O)c1ccc(OC(F)(F)F)cc1 [Compound 2q, 2-Acetyl-4-bromo-6-nitrophenyl 4-(trifluoromethoxy)benzenesulfonate]	8.7 ± 0.075	–	–	–	–
CC(=O)c1cc(Br)cc([N+](=O)[O-])c1OS(=O)(=O)c1ccc(C(F)(F)F)cc1 [Compound 2p, 2-Acetyl-4-bromo-6-nitrophenyl 4-(trifluoromethyl)benzenesulfonate]	8 ± 0.06	–	–	–	–
